Measured values reported in the C3SDB collision cross section collection.
“And” between values parts separate entries of the source, which are not always exact repeats. Equal entries are not always repeated.

Assays:
[1] = instrument: DT, single field, calibrated with Agilent tune mix (Agilent)
[2] = instrument: DT, single field, calibrated with ESI Low Concentration Tuning Mix (Agilent)
[3] = instrument: TW, calibrated with polyalanine and drug standards

Row | SMILES | collision cross section (N2) ([2]; [M+H]+) | collision cross section (N2) ([2]; [M+Na]+) | collision cross section (N2) ([2]; [M-H]-) | collision cross section (N2) ([3]; [M+H]+) | other results
1 | NC(CCCC(=O)O)C(=O)O (racemic) [DL-2-Aminoadipic acid] | – | – | – | – | collision cross section (N2) ([1]; [M+H]+): 134.4 Å²; collision cross section (N2) ([1]; [M-H]-): 127.69 Å²
2 | O=C(O)C(CO)OP(=O)(O)O (racemic) [DL-2-Phosphoglycerate] | – | – | – | – | collision cross section (N2) ([1]; [M+Na]+): 141.8 Å²
3 | CS(=O)CCC(N)C(=O)O (racemic) [DL-Methionine sulfoxide] | – | – | – | – | collision cross section (N2) ([1]; [M+H]+): 133.1 Å²
4 | Cn1c(=O)[nH]c2ncn(C)c2c1=O [1,7-Dimethylxanthine] | – | – | – | – | collision cross section (N2) ([1]; [M-H]-): 133.24 Å²
5 | Cn1cc(CCN)c2ccccc21 [1-Methyltryptamine] | – | – | – | – | collision cross section (N2) ([1]; [M+Na]+): 139 Å²
6 | Cn1c(=O)[nH]c2[nH]c(=O)[nH]c2c1=O [1-Methyluric acid] | – | – | – | – | collision cross section (N2) ([1]; [M-H]-): 129.18 Å²
7 | O=C(O)c1ccccc1O[C@@H]1O[C@H](C(=O)O)[C@@H](O)[C@H](O)[C@H]1O [1-Salicylate glucuronide] | – | – | – | – | collision cross section (N2) ([1]; [M+Na]+): 170.1 Å²; collision cross section (N2) ([1]; [M-H]-): 157.84 Å²
8 | Nc1ncnc2c1ncn2[C@H]1C[C@H](O)[C@@H](COP(=O)(O)O)O1 [2'-Deoxyadenosine 5'-monophosphate] | – | – | – | – | collision cross section (N2) ([1]; [M+H]+): 168.1 Å²
9 | Nc1ccn([C@H]2C[C@H](O)[C@@H](COP(=O)(O)O)O2)c(=O)n1 [2'-Deoxycytidine 5'-monophosphate] | – | – | – | – | collision cross section (N2) ([1]; [M+Na]+): 164 Å²
10 | CC(=O)OCC[N+](C)(C)C [ACETYLCHOLINE] | – | – | – | – | collision cross section (N2) ([2]; [M+]+): 129.5 Å²; collision cross section (N2) ([3]; [M]+): 130.1 Å²
11 | Nc1ncnc2nc[nH]c12 [ADENINE] | 124.9 Å² | 137 Å² and 137.4 Å² | 119.6 Å² and 119.8 Å² | 122.4 Å² | –
12 | Nc1ncnc2c1ncn2[C@@H]1O[C@H](CO)[C@@H](O)[C@H]1O [ADENOSINE] | 155.6 Å² and 161.4 Å² | 165.5 Å² | 157.6 Å² | 156.9 Å² | –
13 | O=C(O)CCCC[C@@H]1SC[C@@H]2NC(=O)N[C@@H]21 [BIOTIN] | 149.7 Å² | 159.9 Å² | – | 148 Å² | collision cross section (N2) ([2]; [M+K]+): 160.1 Å²; collision cross section (N2) ([2]; [M+Na-2H]-): 152.9 Å²
14 | C[C@]12CCC(=O)C=C1CC[C@@H]1[C@@H]2C(=O)C[C@@]2(C)[C@H]1CC[C@]2(O)C(=O)CO [CORTISONE] | 188.3 Å² | 213.2 Å² | 191.4 Å² | 184.4 Å² | –
15 | N[C@@H](CSSC[C@H](N)C(=O)O)C(=O)O [CYSTINE] | 149.4 Å² | 151.2 Å² | 143 Å² | 148.1 Å² | collision cross section (N2) ([2]; [M+Na-2H]-): 147.3 Å²
16 | Nc1ccn([C@@H]2O[C@H](CO)[C@@H](O)[C@H]2O)c(=O)n1 [CYTIDINE] | 151 Å² | 159.7 Å² | 149.8 Å² | 151.1 Å² | –

Row | SMILES | collision cross section (N2) ([2]; [M+H]+) | collision cross section (N2) ([2]; [M+Na]+) | collision cross section (N2) ([2]; [M-H]-) | collision cross section (N2) ([3]; [M+H]+) | other results
17 | Nc1ncnc2c1ncn2[C@H]1C[C@H](O)[C@@H](CO)O1 [DEOXYADENOSINE] | 152.3 Å² and 158.1 Å² | 161.6 Å² | 155.3 Å² | 154.6 Å² | –
18 | O=C1O[C@H](CO)[C@@H](O)[C@H](O)[C@H]1O [GLUCONOLACTONE] | – | 144.7 Å² | – | 127.6 Å² | collision cross section (N2) ([2]; [M+H2O-H]-): 132.6 Å²; collision cross section (N2) ([2]; [M+H20-H]-): 132.5 Å²
19 | O=c1nc[nH]c2nc[nH]c12 [HYPOXANTHINE] | 127.2 Å² | 134.4 Å² | 116.9 Å² | 123.1 Å² | collision cross section (N2) ([2]; [M+Na-2H]-): 134.4 Å²
20 | N[C@@H](Cc1cc(I)c(Oc2ccc(O)c(I)c2)c(I)c1)C(=O)O [LIOTHYRONINE] | 209.1 Å² | 194.3 Å² | – | 205.3 Å² | –
21 | OC[C@@H](O)[C@@H](O)[C@H](O)[C@H](O)CO [MANNITOL] | – | 141.1 Å² | – | – | collision cross section (N2) ([3]; [M+Na]+): 139.6 Å²
22 | COc1ccc2[nH]cc(CCNC(C)=O)c2c1 [MELATONIN] | 153.2 Å² | – | – | 152 Å² | collision cross section (N2) ([2]; [M+K]+): 158.3 Å²
23 | OC[C@H]1O[C@H](OC[C@H]2OC(O)[C@H](O)[C@@H](O)[C@@H]2O)[C@H](O)[C@@H](O)[C@H]1O (some centres undefined) [MELIBIOSE] | 180.4 Å² | 177.3 Å² | 178.1 Å² | – | collision cross section (N2) ([2]; [M+K]+): 180 Å²; collision cross section (N2) ([3]; [M+Na]+): 174.8 Å²
24 | Cn1c(=O)[nH]c2ncn(C)c2c1=O [PARAXANTHINE] | 138.7 Å² | 149.5 Å² | – | 132.4 Å² | –
25 | Cn1c(=O)c2[nH]cnc2n(C)c1=O [THEOPHYLLINE] | – | – | 132 Å² | 133.5 Å² | –
26 | O=c1ccn([C@@H]2O[C@H](COP(=O)(O)OP(=O)(O)OP(=O)(O)O)[C@@H](O)[C@H]2O)c(=O)[nH]1 [URIDINE TRIPHOSPHATE] | 187 Å² | 188.8 Å² | 180.1 Å² and 180.2 Å² | – | collision cross section (N2) ([2]; [M+Na-2H]-): 190.2 Å²
27 | O=c1ccn([C@@H]2O[C@H](CO)[C@@H](O)[C@H]2O)c(=O)[nH]1 [URIDINE] | – | 160.9 Å² | 150.7 Å² | – | –
28 | O=c1[nH]c(=O)c2[nH]cnc2[nH]1 [XANTHINE] | 129.9 Å² | – | 120.6 Å² | – | –
29 | O=C(O)c1cc(=O)c2cccc(O)c2[nH]1 [XANTHURENATE] | 140.4 Å² | 147.7 Å² | 134.3 Å² | – | –
30 | OC[C@@H](O)C(O)[C@@H](O)CO (some centres undefined) [XYLITOL] | – | 135.4 Å² | 124.8 Å² | – | –
31 | OC1OC[C@@H](O)[C@H](O)[C@H]1O (some centres undefined) [XYLOSE] | – | 134.9 Å² | – | – | –
